Values quoted from earlier work in publication PMC6698139 (Bioorganic & medicinal chemistry, 2019).

Tested on: S1PR2
Conditions: [33P]S1P competitive binding assay

Cc1cc(C(=O)Cn2cc(C#N)ccc2=O)c(C)n1Cc1ccccc1 [CYM-5520]
competition with S1P: not competitive
